According to publication PMC10660337, “Mutate and Conjugate: A Method to Enable Rapid In-Cell Target Validation” (ACS Chemical Biology, 2023):
Several values for one entry are separate records, joined by “and”; a condition that tells them apart may be missing. Equal entries are not always repeated. Where two headings read alike, the source gives them in different places.

Experiments:
Assay type in all cases: binding
BRD4(1)^L94C [1] = biological target: T1, BRD4(1)^L94C (Homo sapiens, UniProt O60885, L94C); assay: Protein LCMS labeling assay 1; conditions: for Labeled Protein (%) L94C 1 h / Labeled Protein (%) L94C 4 h: 50 μM compound, 10 µM protein, 37 °C, mean of three ± s.e.m., ND = not detectable
T1 construct: Characterization of His6-BRD4(1)L94C; made in house; host or cells: E. coli BL21 (DE3)
Method: (§1) The resulting library of 22 fragments was screened for BRD4(1)^L94C binding at a concentration of 50 μM using a protein LCMS assay (referred to as “labeling assay 1”). […] To assess the selectivity of the fragments for the labeling of C94, hits were also screened against BRD4(1)^WT under the same conditions. […] The acrylamide-based fragment, 12, labeled 98% of BRD4(1)^L94C after 4 h. While 95% of the protein was labeled once, 3% of the protein was labeled twice (Figure 5D). […] Fragment 14, designed by appending a β-dimethylaminomethyl acrylamide to the structure of 12, led to 74% of singly labeled BRD4(1)^L94C after 4 h with no labeling of BRD4(1)^WT observed (Table 1 and Figure 5E). […] However, only 9.9% of labeled BRD4(1)^L94C was observed, substantially lower than the 56% labeling observed for the corresponding 3-methyl regioisomer 10 (Table 1). […]
(§2) Assays were performed in 1.5 mL Eppendorf tubes at 37 °C and gently shaken, unless otherwise stated.
(§3) Experiments were performed in a protein LCMS assay buffer, with 10 µM protein, and 50 µM of the desired compound with a final DMSO concentration of 0.5% (Table S16). Time points were taken at 0, 1 and 4 h, unless otherwise stated, where a 20 µL sample of the reaction mix was taken, diluted with 100 µL Milli-Q water, and flash frozen. Samples were thawed immediately prior to LCMS analysis on a Waters Xevo G2-S system (Waters) fitted with a ProSwift™ RP-2H PSDVB Reversed Phase HPLC Column (Thermofisher). Data was analysed and processed using MassLynx. The total ion chromatograms (TIC) were extracted (region containing protein) and the summed scans were deconvoluted (using MaxEnt). Covalent labeling was calculated using intensities of the unlabeled and labeled protein (Equation 1). Figures were made using GraphPad Prism 7.0.
(§4) Table S16. Buffer composition for protein LCMS.
(§5) Buffer Reagent Composition Amount per 1 L
(§6) Protein LCMS Assay Buffer HEPES 25 mM 6.0 g
(§7) Protein Labelling = Intensity of Labelled Peak × 100

BRD4(1)^WT [2] = biological target: T2, BRD4(1)^WT (Homo sapiens, UniProt O60885); assay: Protein LCMS labeling assay 1; conditions: for Labeled Protein (%) WT 4 h: 50 μM compound, 10 µM protein, 37 °C, mean of three ± s.e.m., ND = not detectable; for Covalent labeling of purified BRD4(1)^WT detected using LCMS: after 20 h incubation
T2 construct: Characterization of His6-BRD4(1)WT; made in house; host or cells: E. coli BL21 (DE3)
Method: Before introducing a Cys mutant into the first bromodomain of BRD4 [BRD4(1)], we wanted to rule out the possibility that the native Cys residues C125 and C136 (Figures 2A and S1), would react with electrophilic fragments. To test this, we incubated two KAc-mimicking methylisoxazole-based reactive fragments (1 and 2, Figure 2C) with purified BRD4(1)^WT.
as §1, §2, §3, §4, §5, §6, §7

BRD4(1)^WT [3] = biological target: T2, BRD4(1)^WT; assay: AlphaScreen H4_1–20(KAc)4 peptide displacement
Method: (§8) Dose response AlphaScreen™
(§9) The peptide (Table S17) was supplied at >95% purity by GenScript and was stored as 1 mM stocks in […]
(§10) Table S17. Amino acid sequences of peptides used in AlphaScreen™.
(§11) Peptide Amino Acid Sequence […]
(§12) The assay buffer (Table S18, pH 7.6) was filtered through a 0.22 μm filter before use. The buffer is stored at 4 °C as a 5× solution without bovine serum albumin (BSA), which was added on the day of use. The compounds, proteins, and peptides were dispensed into a ProxiPlate-384 Plus (Perkin Elmer) using a Thermo-Fisher electronic multi-channel pipette. For the incubation steps, the plates were sealed, shaken for 10 seconds at 600 rpm on a plate oscillator, and incubated at room temperature in darkness for 30 min or 3.5 h. Ni2+ chelate acceptor and streptavidin donor beads were prepared as a mixture in a 1:300 dilution (0.007 mg/mL final assay concentration, added to the plates and incubated for a further 30 min at room temperature. Plates were read using a SynergyTM 2 MultiMode Microplate Reader using the inbuilt AlphaScreen™ 384 ProxiPlate function: excitation 680 nm, 0.18 sec; emission […]
(§13) Table S18. Composition of assay buffer used in AlphaScreen™ experiments, adjusted to pH 7.6 using an aqueous NaOH […]
(§14) Reagent Composition Mass (mg) for 50 mL
(§15) 50 mM DMSO stock solutions of the compounds were serially diluted, and dispensed into wells (5 μL).
(§16) The protein-peptide mixes (7 μL) for each combination were prepared following the specified final assay concentration (Table S19), and dispensed into wells. Assay beads (8 μL) were added to attain a final assay volume of 20 μL. Dose response curves were obtained for each compound in triplicate, with serial 1:2 dilutions. Data was processed by fitting a four-parameter equation (Equation 2) to calculate IC50 values using Prism software.
(§17) Table S19. Final assay concentrations of each peptide-protein combination.
(§18) Protein Peptide Protein FAC (nM) Peptide FAC (nM)
(§19) Response = Bottom + Top − Bottom

BRD4(1)^L94C [4] = biological target: T1, BRD4(1)^L94C; assay: AlphaScreen H4_1–20(KAc)4 peptide displacement
Method: Under these conditions, all three fragments displaced the peptide from BRD4(1)^L94C, which is consistent with the fragments binding to BRD4(1)^L94C in the expected location (Table 2). […] The longer the mutant protein and electrophile are incubated together, the more time there is for a covalent interaction to occur. […]
as §8, §9, §10, §11, §12, §13, §14, §15, §16, §17, §18, §19

BRD4(1)^L94C [5] = biological target: T1, BRD4(1)^L94C; assay: Fluorescent labeling of purified protein (CuAAC with TAMRA-PEG3-azide, in-gel fluorescence); conditions: 50 μM probe, 10 μM protein, 4 h, 37 °C, then CuAAC 1 h
Method: When 28, 29, 30, and 42 were incubated with either purified BRD4(1)^L94C or BRD4(1)^WT and subjected to a copper(I)-catalyzed alkyne–azide click reaction (CuAAC) reaction with the fluorescent TAMRA-PEG3-azide dye, all clickable probes labeled the mutant protein and could be visualized using fluorescence imaging of a gel (Figure 6).
Figure 6 Clickable probes 28, 29, 30, and 42 covalently label BRD4(1)^L94C and undergo a subsequent CuAAC reaction with TAMRA-PEG3 azide to fluorescently label the protein, as shown by in-gel fluorescence imaging. Compounds 28, 29, 30, 41, and 42 (50 μM) were incubated with purified BRD4(1)^L94C or BRD4(1)^WT (10 μM) for 4 h at 37 °C, followed by CuAAC reaction with TAMRA-PEG3 azide for 1 h and separation of components by SDS-PAGE. For all compounds other than 30, only labeling of BRD4(1)^L94C was observed. […]
Fluorescent labeling of purified proteins
Assays were performed in 1.5 mL Eppendorf tubes at 37 °C, and gently shaken, unless otherwise stated.
The desired click probe (50 µM) was incubated with protein (10 µM) in protein LCMS buffer for 4 h, after which TAMRA-PEG3-Azide (200 µM), TCEP·HCl (1 mM), TBTA (100 µM), and CuSO4 (1 mM) were added and incubated for a further 1 h at room temperature in the dark. A 25 µL sample of the […]
reaction mix was taken and 8 µL of Lamelli buffer added, and the samples denatured by heating at 95 °C for 10 min. Samples were separated by gel electrophoresis on NuPAGE™ 4–12%, Bis-Tris precast polyacrylamide gels (Thermofisher). Following electrophoresis, gels were stained for 15 min with InstantBlueTM Coomasie® stain (Abcam), destained, and imaged using Bio-rad molecular imager.
Bio-rad Image Lab 6.1 was used to process the data. […]
InstantBlueTM Coomasie® stain (Abcam), destained, and imaged using Bio-rad molecular imager. […]
MEM media. Cells were then harvested and lysed using the previously described protocol above. […]

[6] = 4 h incubation at RT, mean of three ± s.e.m.
[7] = IC50 (μM) L94C 1 h, 1 h incubation at RT, mean of three ± s.e.m.
[8] = IC50 (μM) L94C 4 h, 4 h incubation at RT, mean of three ± s.e.m.

Row | SMILES | Labeled Protein (%) L94C 1 h (BRD4(1)^L94C [1]) [%] | Labeled Protein (%) L94C 4 h (BRD4(1)^L94C [1]; 4 h) | Labeled Protein (%) WT 4 h (BRD4(1)^WT [2]) | other results
1 | Cc1noc(NC(=O)/C=C/CN(C)C)c1-c1ccccc1 [Compound 14] | 27 ± 2.2 | 74% and 74 ± 2.6% | no labeling | IC50 (BRD4(1)^WT [3]; [6]): > 100 µM; IC50 (BRD4(1)^L94C [4]; [7]): 8.69 µM and 8.7 µM; IC50 (BRD4(1)^L94C [4]; [8]): 4.45 µM and 4.4 µM
2 | Cc1cc(CCl)on1 [Compound 1] |  |  |  | Covalent labeling of purified BRD4(1)^WT detected using LCMS (BRD4(1)^WT [2]): no covalent labeling
3 | Cc1cc(CCl)no1 [Compound 2] |  |  |  | Covalent labeling of purified BRD4(1)^WT detected using LCMS (BRD4(1)^WT [2]): no covalent labeling
4 | C=CC(=O)Nc1onc(C)c1-c1ccccc1 [Compound 12] | 70 ± 0.6 | 98% and 98 ± 0.2% | 3% and 3.0 ± 0.2% | BRD4(1)^L94C protein labeled once (BRD4(1)^L94C [1]; 50 μM, 4 h): 95%; BRD4(1)^L94C protein labeled twice (BRD4(1)^L94C [1]; 50 μM, 4 h): 3%; IC50 (BRD4(1)^WT [3]; [6]): > 100 µM; IC50 (BRD4(1)^L94C [4]; [7]): 5.83 µM and 5.8 µM; IC50 (BRD4(1)^L94C [4]; [8]): 1.27 µM and 1.3 µM
5 | C#CCOc1ccc(-c2c(C)noc2NC(=O)/C=C/CN(C)C)cc1 [Compound 29] | 49 ± 2.0 |  |  | Labeling of purified BRD4(1)^L94C, in-gel fluorescence (BRD4(1)^L94C [5]): high levels
6 | C#Cc1ccc(-c2c(C)noc2NC(=O)/C=C/CN(C)C)cc1 [Compound 28] | 59 ± 1.9 |  |  | Labeling of purified BRD4(1)^L94C, in-gel fluorescence (BRD4(1)^L94C [5]): high levels
7 | Cc1noc(C)c1-c1cc(O)cc(C(O)c2cccnc2)c1 (centres unmarked) [OXFBD04 (3), reference compound] |  |  |  | IC50 (BRD4(1)^WT [3]; equals the 4 h value of Figure S14): 0.183 ± 0.025 µM; IC50 (BRD4(1)^L94C [4]; IC50, prevention of H4_1–20(KAc)4 peptide binding to BRD4(1)^L94C, equals the 4 h value of Figure S13): 0.08 ± 0.009 µM; IC50 (BRD4(1)^L94C [4]; read-out: IC50 (μM) L94C 1 h, 1 h incubation at RT, mean of three ± s.e.m.): 0.059 ± 0.11 µM
8 | C=CC(=O)Nc1cc(C)no1 [Compound 10] | 21 ± 1.8 | 56% and 56 ± 0.9% |  | 
9 | Cc1noc(NC(=O)CCl)c1-c1ccccc1 [Compound 22] | 5.9 ± 0.3 | 22 ± 0.4% |  | 
10 | Cc1cc(NC(=O)/C=C/CN(C)C)on1 [Compound 13] | 16 ± 0.7 | 52% and 52 ± 0.9% |  | 
11 | C=CC(=O)c1onc(C)c1-c1ccccc1 [Compound 6] | 100 ± 0.0 | 100 ± 0.0% |  | 
12 | CC#CC(=O)Nc1cc(C)no1 [Compound 20] |  | 7.8 ± 0.2% |  | 

The next lines start with results.

Row | Labeled Protein (%) L94C 1 h (BRD4(1)^L94C [1]) [%] | Labeled Protein (%) L94C 4 h (BRD4(1)^L94C [1]; 4 h) | Labeled Protein (%) WT 4 h (BRD4(1)^WT [2]) | SMILES | other results
13 | 7.6 ± 0.4 | 9.9% and 9.9 ± 0.4% |  | C=CC(=O)Nc1cc(C)on1 [Compound 11] | 
14 | 10 ± 0.7 | 32 ± 0.9% |  | Cc1cc(NC(=O)CCl)on1 [Compound 21] | 
15 | 100.0 ± 0.0 | 100.0 ± 0.0% | 86 ± 7.4% | C=CC(=O)c1cc(C)on1 [Compound 5] | 
16 | 44 ± 0.6 | 42 ± 1.4% | 29 ± 0.8% | C#CC(=O)c1cc(C)no1 [Compound 8] | 
17 | 3.4 ± 0.2 | 15 ± 1.3% |  | C#CC(=O)Nc1cc(C)no1 [Compound 19] | 
18 | 60 ± 0.7 | 58 ± 1.9% | 22 ± 1.4% | C#CC(=O)c1cc(C)on1 [Compound 9] | 
19 | 100 ± 0.0 | 100 ± 0.0% | 83 ± 1.2% | C=CC(=O)c1cc(C)no1 [Compound 4] | 
